Assay results published in patent publication US4889860A (Nova Pharmaceutical Corporation, priority 1987, dated 1989).
Entries after “also recorded” stand apart in the source; their conditions may differ.

Key:
mu-type opioid receptor = target: T1, mu-type opioid receptor (Rattus norvegicus, UniProt P33535); experiment: inhibition of specific [^3 H] DAGO binding to rat forebrain membranes; conditions: (Ki) nM, μ receptor (Rat Forebrain), Table 6; [^3 H] DAGO, mean of three experiments
T1 construct: using rat forebrain membranes; from tissue; host or cells: rat forebrain membranes
T1 sequence (P33535 whole entry): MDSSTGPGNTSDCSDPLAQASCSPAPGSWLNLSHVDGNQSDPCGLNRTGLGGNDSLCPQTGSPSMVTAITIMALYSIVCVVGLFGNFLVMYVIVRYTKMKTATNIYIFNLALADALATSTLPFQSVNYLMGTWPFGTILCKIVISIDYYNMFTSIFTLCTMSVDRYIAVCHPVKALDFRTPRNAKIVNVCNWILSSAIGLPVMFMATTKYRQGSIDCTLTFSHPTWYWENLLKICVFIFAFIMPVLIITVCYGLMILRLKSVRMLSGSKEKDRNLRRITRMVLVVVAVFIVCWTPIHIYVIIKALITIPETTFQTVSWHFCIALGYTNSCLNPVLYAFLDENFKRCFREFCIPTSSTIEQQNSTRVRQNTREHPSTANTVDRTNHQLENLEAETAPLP
Protocol: (§1) The interaction of some of the novel compounds with mu and delta-type opioid receptors present in brain membranes was examined in vitro. […] DAGO (mu-type receptor) or [^3 H] DADLE (delta-type receptor) was determined using rat forebrain membranes. Computer assisted analysis (EBDA) was used to determine apparent Ki values for the various compounds.
(§2) Values represent the MEAN±S.E.M. of the Ki(nM) for each compound to inhibit specific binding of the indicated ligand to rat brain membranes. The values are from two-five separate experiments and were calculated according to the method of Cheng and Prusoff [Biochem. Pharmacol. 1973, 22, 3099-3108] together with the EBDA Program. Numbers in parentheses are the mean Hill coefficients for each compound to inhibit ligand binding.
(§3) Values represent the MEAN±S.E.M. of the Ki(nM) for each compound to inhibit specific binding of the indicated ligand to rat brain membranes. The values are from two.div.seven separate experiments and were calculated according to the method of Cheng and Prusoff together with the EBDA program. Numbers in parentheses are the mean Hill coefficients for each compound to inhibit ligand binding. N.D.=not determined
(§4) The interaction of some of the novel compounds with mu, delta and kappa - type opioid receptors present in brain membranes was examined in vitro. […] DAGO (mu-type receptor), or [^3 H] DADLE (Delta-type receptor) using rat forebrain membranes and [^3 H] EKC (kappa-type receptor) using guiniea pig cerebellum membrane was determined. Computer assisted analysis (EBDA) was used to determine apparent Ki values for the various compounds.
(§5) The values represent the MEAN±S.E.M. of the Ki(nM) for each compound to inhibit specific binding of the indicated ligand. Each value represents the mean of three individual experiments performed on separate occasions.

[1] = system: oxymorphonazine (OMZ)-induced analgesia; experiment: antagonism of oxymorphonazine (OMZ)-induced analgesia (tail flick) in rats; type: in vivo, rat; conditions: for ED50 / ED100: Rattus norvegicus, sc, Table 8; for ED50 / ED100 / Percent Antagonism at 1 Hr / Percent Antagonism at 1.5 Hr / Percent Antagonism at 2 Hr / Percent Antagonism at 3 Hr / Percent Antagonism at 4 Hr / Percent Antagonism at 6 Hr / Percent Antagonism at 8 Hr: S.C.; for ED50: read-out: ED 50, oxymorphonazine antagonism; for ED100: read-out: ED 100, oxymorphonazine antagonism; for Percent Antagonism at 1 Hr / Percent Antagonism at 1.5 Hr / Percent Antagonism at 2 Hr / Percent Antagonism at 3 Hr / Percent Antagonism at 4 Hr / Percent Antagonism at 6 Hr / Percent Antagonism at 8 Hr: dose tested (mg/kg): Naltrexone 0.5, Nalmefene 1.0, XI 10.0, XII 2.5, XIII 0.5, XIV 5.0
Protocol: The compound of Example XII was evaluated for its potency and duration in the antagonism of oxymorphonazine (OMZ)-induced analgesia. […] Data represent the mean SEM of 4-5 animals per group.
(Cowan A. Trendsin Pharmacology Science, 7:69-72, 1986) With this test the intracerebroventricular administration of bombesin produces a characteristic scratching response.

[2] = target: T2, kappa-type opioid receptor (Cavia porcellus, UniProt P41144); experiment: inhibition of specific [^3 H] EKC binding to guinea pig cerebellum membrane
T2 construct: using guiniea pig cerebellum membrane; from tissue; host or cells: guinea pig cerebellum membranes
T2 sequence (P41144 whole entry): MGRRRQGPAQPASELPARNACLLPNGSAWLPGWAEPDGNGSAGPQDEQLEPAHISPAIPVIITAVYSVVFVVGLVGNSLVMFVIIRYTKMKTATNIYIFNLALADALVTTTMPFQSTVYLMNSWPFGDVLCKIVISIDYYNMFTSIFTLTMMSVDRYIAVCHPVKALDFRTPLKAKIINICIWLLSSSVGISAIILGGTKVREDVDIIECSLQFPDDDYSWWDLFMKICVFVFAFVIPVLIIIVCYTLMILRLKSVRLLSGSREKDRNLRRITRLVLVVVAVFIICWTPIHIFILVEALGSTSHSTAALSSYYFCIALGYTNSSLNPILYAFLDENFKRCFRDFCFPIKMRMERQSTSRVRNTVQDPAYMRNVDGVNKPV
Protocol: as §4, §5

[3] = target: delta-type opioid receptor (Rattus norvegicus, UniProt P33533); experiment: inhibition of specific [^3 H] DADLE binding to rat forebrain membranes; conditions: read-out: (Ki) nM, δ receptor (Rat Forebrain); Table 6; [^3 H] DADLE, mean of three experiments
Sequence of delta-type opioid receptor (P33533 whole entry): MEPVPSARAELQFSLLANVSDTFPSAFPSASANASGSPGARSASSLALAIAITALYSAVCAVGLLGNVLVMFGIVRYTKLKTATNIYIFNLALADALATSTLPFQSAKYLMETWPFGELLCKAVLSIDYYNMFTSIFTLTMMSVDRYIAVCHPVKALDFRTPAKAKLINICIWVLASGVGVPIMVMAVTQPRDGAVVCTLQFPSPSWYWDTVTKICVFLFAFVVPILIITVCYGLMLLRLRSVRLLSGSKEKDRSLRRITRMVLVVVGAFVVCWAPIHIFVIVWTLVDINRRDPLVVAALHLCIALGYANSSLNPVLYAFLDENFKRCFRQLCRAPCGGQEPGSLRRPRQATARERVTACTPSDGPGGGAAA
Protocol: as §1, §2, §3, §4, §5

writhing response = experiment: animal or person; type: in vivo, mouse; conditions: Mus musculus; Table 7; read-out: ED50, Acetic Acid Induced Writhing in the Mouse
[4] = food intake in 24 hr food-deprived rats; type: in vivo, rat; conditions: for Food Intake in Grams: Table 3, 24 hr; for Cumulative Food Intake in Grams: Table 4
Protocol: (§6) Rats were given water and powdered food ad lib for 8 days until food intake had stabilized, and body weight and food and water intakes were recorded at the same time every day. Animals were assigned to treatment groups matched on the basis of their 24 hr food consumption on the last baseline day, and rats were food deprived for 24 hr immediately before injection of the test compound. […] The compound of Example XII was injected S.C. at doses of 1.15, 2.31, 11.55 and 23.09 μmol/kg, in a volume of 4 ml/kg of 0.3% acetic acid. Controls were injected with the vehicle solutions in the appropriate volumes. Food and water intakes were measured at 1, 3 and 24 hr after treatment. Data for each measure and time point were analyzed by one-way analysis of variance (ANOVA), and post-hoc comparisons were performed using Dunnett's test in order to compare the control mean to each of the treatment means.
(§7) Rats were given water and powdered food for 8 days, and following this,
(§8) Testing was performed as described above, and baseline measurements were recorded for 7 days. […] The compound of Example XII was injected at doses of 11.55, 23.09, 46.19 and 92.38 μmol/kg by suspension in a solution of 1:1 DMSO:water in a volume of 3 ml/kg. Food and water intakes were recorded at 1, 2, 4 and 6 h following treatment.
See Table 3 for experimental details, except that baseline measures were […]

[5] = water intake in 24 hr food-deprived rats; type: in vivo, rat; conditions: for effect on water intake: S.C.; for Water Intake: Table 3, 24 hr; for Cumulative Water Intake: Table 5
Protocol: as §6, §7, §8
See Table 3 for experimental details, except that baseline measurements

C=C1CC[C@@]2(O)[C@H]3Cc4ccc(O)c5c4[C@@]2(CCN3CC2CC2)[C@H]1O5 [Nalmefene, reference compound]
Ki (mu-type opioid receptor): 0.64 nM | ED50 [1]: 0.12 mg/kg | ED100 [1]: 1.35 mg/kg | Percent Antagonism at 1 Hr [1]: 85% | Percent Antagonism at 1.5 Hr [1]: 92% | Percent Antagonism at 2 Hr [1]: 83% | Percent Antagonism at 3 Hr [1]: 73% | Percent Antagonism at 4 Hr [1]: 46% | Percent Antagonism at 6 Hr [1]: 0% | Percent Antagonism at 8 Hr [1]: 37% | Ki [2]: 0.89 nM | Ki [3]: 0.87 nM | ED50 (writhing response): > 30 mg/kg

O=C1CC[C@@]2(O)[C@H]3Cc4ccc(O)c5c4[C@@]2(CCN3CC2CC2)[C@H]1O5 [Naltrexone, naltrexone]
effect on feeding ([4]; S.C., 1, 3 and 24 hr, lower dose experiment (FIGS. 22, 23)): 14.66 and 29.33 μmol/kg doses of naltrexone inhibited feeding at 3 hr following treatment | effect on feeding ([4]; S.C., higher dose time course experiment, 0-6 hr): at all doses decreased feeling up to 4 hr after administration, and the two lower doses also decreased feeding at 6 hr post treatment | Food Intake in Grams ([4]; S.C. 1.47 μmol/kg): 33.0 ± 0.7 Grams | Food Intake in Grams ([4]; S.C. 2.93 μmol/kg): 33.2 ± 3.0 Grams | Food Intake in Grams ([4]; S.C. 14.66 μmol/kg): 37.6 ± 4.2 Grams | Food Intake in Grams ([4]; S.C. 29.33 μmol/kg): 40.7 ± 8.2 Grams | Cumulative Food Intake in Grams ([4]; S.C. 14.66 μmol/kg, 0-1 Hr): 3.6 ± 0.5 Grams | Cumulative Food Intake in Grams ([4]; S.C. 14.66 μmol/kg, 0-2 Hr): 3.6 ± 0.5 Grams | Cumulative Food Intake in Grams ([4]; S.C. 14.66 μmol/kg, 0-4 Hr): 4.0 ± 0.0 Grams | Cumulative Food Intake in Grams ([4]; S.C. 14.66 μmol/kg, 0-6 Hr): 5.2 ± 0.6 Grams | Cumulative Food Intake in Grams ([4]; S.C. 29.33 μmol/kg, 0-1 Hr): 3.2 ± 0.6 Grams | Cumulative Food Intake in Grams ([4]; S.C. 29.33 μmol/kg, 0-2 Hr): 3.2 ± 0.6 Grams | Cumulative Food Intake in Grams ([4]; S.C. 29.33 μmol/kg, 0-4 Hr): 4.4 ± 0.5 Grams | Cumulative Food Intake in Grams ([4]; S.C. 29.33 μmol/kg, 0-6 Hr): 5.2 ± 0.9 Grams | Cumulative Food Intake in Grams ([4]; S.C. 58.65 μmol/kg, 0-1 Hr): 2.8 ± 1.1 Grams | Cumulative Food Intake in Grams ([4]; S.C. 58.65 μmol/kg, 0-2 Hr): 2.8 ± 1.1 Grams | Cumulative Food Intake in Grams ([4]; S.C. 58.65 μmol/kg, 0-4 Hr): 3.2 ± 0.9 Grams | Cumulative Food Intake in Grams ([4]; S.C. 58.65 μmol/kg, 0-6 Hr): 6.4 ± 0.5 Grams | Cumulative Food Intake in Grams ([4]; S.C. 117.30 μmol/kg, 0-1 Hr): 3.6 ± 0.8 Grams | Cumulative Food Intake in Grams ([4]; S.C. 117.30 μmol/kg, 0-2 Hr): 3.6 ± 0.8 Grams | Cumulative Food Intake in Grams ([4]; S.C. 117.30 μmol/kg, 0-4 Hr): 4.8 ± 0.9 Grams | Cumulative Food Intake in Grams ([4]; S.C. 117.30 μmol/kg, 0-6 Hr): 7.6 ± 1.3 Grams | food intake in 4-6 hr interval ([4]; food intake/2 hr interval, FIGS. 26 and 27): rats treated with the two highest doses of naltrexone are beginning to resume feeding; also recorded: an increase in food consumption at some doses compared to controls | time course of antagonism of OMZ-induced analgesia, PO ([1]; PO, naltrexone 26.53 μmol/kg): a trend for progressive loss of the antagonistic effect over 0.5-4.0 hours, although the reversal was not complete by eight hours | ED50 [1]: 0.07 mg/kg | ED100 [1]: 0.62 mg/kg | Percent Antagonism at 1 Hr [1]: 98% | Percent Antagonism at 1.5 Hr [1]: 76% | Percent Antagonism at 2 Hr [1]: 79% | Percent Antagonism at 3 Hr [1]: 47% | Percent Antagonism at 4 Hr [1]: 30% | Percent Antagonism at 6 Hr [1]: 4% | Percent Antagonism at 8 Hr [1]: 4% | duration of antagonism of OMZ-induced analgesia, SC ([1]; SC, naltrexone 1.33 μmol/kg, OMZ 19 μmol/kg SC): up to 1 hr | effect on water intake ([5]; 1 and 3 hr, lower dose experiment (FIGS. 24, 25)): inhibited drinking at all doses tested at the 1 and 3 hr time points | effect on water intake ([5]; 1 and 3 hr, lower dose experiment (FIGS. 24, 25), listed as naltrexone): effectively inhibited drinking at all doses tested during the first three hours after administration | effect on water intake ([5]; higher dose time course experiment, 0-6 hr): significant effects at 0-1 hr, 0-2 hr and 0-4 hr | Water Intake ([5]; S.C. 1.47 μmol/kg): 69.0 ± 3.5 mL | Water Intake ([5]; S.C. 2.93 μmol/kg): 62.4 ± 3.8 mL | Water Intake ([5]; S.C. 14.66 μmol/kg): 53.4 ± 5.5 mL | Water Intake ([5]; S.C. 29.33 μmol/kg): 66.0 ± 2.8 mL | Cumulative Water Intake ([5]; S.C. 14.66 μmol/kg, 0-1 Hr): 5.2 ± 1.1 mL | Cumulative Water Intake ([5]; S.C. 14.66 μmol/kg, 0-2 Hr): 9.2 ± 1.1 mL | Cumulative Water Intake ([5]; S.C. 14.66 μmol/kg, 0-4 Hr): 15.2 ± 2.0 mL | Cumulative Water Intake ([5]; S.C. 14.66 μmol/kg, 0-6 Hr): 22.8 ± 2.1 mL | Cumulative Water Intake ([5]; S.C. 29.33 μmol/kg, 0-1 Hr): 5.2 ± 0.6 mL | Cumulative Water Intake ([5]; S.C. 29.33 μmol/kg, 0-2 Hr): 8.4 ± 0.5 mL | Cumulative Water Intake ([5]; S.C. 29.33 μmol/kg, 0-4 Hr): 15.2 ± 1.1 mL | Cumulative Water Intake ([5]; S.C. 29.33 μmol/kg, 0-6 Hr): 21.6 ± 3.1 mL | Cumulative Water Intake ([5]; S.C. 58.65 μmol/kg, 0-1 Hr): 3.6 ± 0.8 mL | Cumulative Water Intake ([5]; S.C. 58.65 μmol/kg, 0-2 Hr): 6.8 ± 0.6 mL | Cumulative Water Intake ([5]; S.C. 58.65 μmol/kg, 0-4 Hr): 13.2 ± 1.3 mL | Cumulative Water Intake ([5]; S.C. 58.65 μmol/kg, 0-6 Hr): 22.4 ± 2.6 mL | Cumulative Water Intake ([5]; S.C. 117.30 μmol/kg, 0-1 Hr): 3.6 ± 0.8 mL | Cumulative Water Intake ([5]; S.C. 117.30 μmol/kg, 0-2 Hr): 9.2 ± 0.9 mL | Cumulative Water Intake ([5]; S.C. 117.30 μmol/kg, 0-4 Hr): 16.0 ± 1.6 mL | Cumulative Water Intake ([5]; S.C. 117.30 μmol/kg, 0-6 Hr): 26.8 ± 3.4 mL | ED50 (writhing response): > 30 mg/kg
